Test [1] deals with microflora from primary root carious lesions (PRCL). The test is described as follows: Ozone effect on microflora from primary root caries ex-vivo. Conditions: for Mean ± SE of Total cfu (Log10): After 10 Seconds of Ozone Treatment. In kind it is cell-based. An excerpt: Primary root carious lesions (PRCL) are a major clinical problem. The aim of this study was to establish if ozone could achieve effective microbial killing in PRCL. An ozone producing generator (Purezone Ltd., Ipswich, U.K.) was used in this ex-vivo study assessing the use of ozone on PRCL. In this study, soft PRCL requiring restoration were used as these are the most severe type of lesion found in humans. 20 freshly extracted teeth with PRCL requiring restoration were used. After plaque removal using a hand held standard fine nylon fiber sterile toothbrush with sterile water as a lubricant to cleanse the surface, each tooth was then isolated using sterile cotton wool rolls and dried using a dry sterile cotton wool roll. […] Each sample was weighed and immediately placed in 1 ml of Fastidious Anaerobe Broth (FAB). To each 1 ml of FAB containing a biopsy o carious or ozone treated carious dentine, sterile glass beads were added. They were vortexed for 30 seconds to facilitate the extraction of any micro-organisms from the carious dentine and disperse any aggregates.
The procedure of Example 2 was repeated except that ozonized water was applied to the lesion for 20 seconds.

Test [2] deals with Streptococcus sobrinus; TH 21. As to the kind of experiment: Ozone on S. sobrinus on saliva coated glass beads. Conditions: 10 seconds of ozone applied to saliva coated glass beads.
Description: In study 2, 40 sterile saliva coated glass beads were put into bijoux bottles with 3 mls of Todd Hewitt broth for control and test groups. S. sobrinus and S. mutans were inoculated and incubated anaerobically overnight. Each glass bead was washed with 2 mls of PBS. Immediately, 10 seconds of ozone was applied to the glass beads in the test groups. Subsequently, each glass bead in the test and control groups was placed in 3 mls of Todd Hewitt broth with six more sterile glass beads and were vortexed for 30 seconds. After decimal dilutions, 100 ml aliquots were spread on blood agar plates supplemented with 5% (V/V) horse blood and placed in an anaerobic chamber at 37° C. for two days. The number of each colony type was counted and calculated.

As to `O=[O+][O-]` [ozone], the “percentage of micro-organisms killed” value in test [1] (10 seconds of ozone, PRCL ex-vivo) is “more than 99%”. Also, the “Mean ± SE of Total cfu (Log10)” value stood at 3.57±0.37 Log10 in test [1] (soft PRCL from extracted teeth) and 3.57 ± 0.37 Log10 in test [1] (soft PRCL from extracted teeth, listed as Ozone). Moreover, the “Total cfu (log10), mean±SE” value in test [1] (after 20 seconds of ozone treatment, soft PRCL from extracted teeth) is listed as 3.77±0.42 log10. Also, the “colony count (log10), Mean±SE” value in test [2] was 1.09±0.36 log10.

These data come from US20030133881A1, “Formulations for the remineralization of teeth” (priority 2001, published 2003).
